Measured values from ChEMBL document CHEMBL1201862, “PubChem BioAssay data set” (2004).
Activity calls are given as the source filed them.

Legend:
[1] = target: Glyceraldehyde-3-phosphate dehydrogenase (Homo sapiens, UniProt P04406)
[2] = cells; format: functional
[3] = target: T1, DNA repair protein RAD52 homolog (Homo sapiens, UniProt P43351); format: functional, biochemical
T1 sequence (P43351 whole entry): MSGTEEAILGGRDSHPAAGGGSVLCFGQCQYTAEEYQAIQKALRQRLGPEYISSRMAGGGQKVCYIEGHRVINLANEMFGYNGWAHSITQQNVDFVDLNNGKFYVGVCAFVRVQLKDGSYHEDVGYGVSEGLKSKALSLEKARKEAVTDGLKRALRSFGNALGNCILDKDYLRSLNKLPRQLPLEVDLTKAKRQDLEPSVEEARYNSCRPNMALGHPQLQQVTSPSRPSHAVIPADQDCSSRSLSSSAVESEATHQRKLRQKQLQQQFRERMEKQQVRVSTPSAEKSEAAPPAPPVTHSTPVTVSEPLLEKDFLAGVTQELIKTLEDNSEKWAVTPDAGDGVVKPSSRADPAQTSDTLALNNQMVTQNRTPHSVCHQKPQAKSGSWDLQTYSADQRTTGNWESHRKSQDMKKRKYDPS

[4] = target: T2, Ubiquitin-conjugating enzyme E2 N (Homo sapiens, UniProt P61088); format: functional;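 note: Dose-response confirmation in a TR-FRET assay detecting UBC13-driven polyubiquitin chain formation, inhibition measured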
T2 sequence (P61088 whole entry): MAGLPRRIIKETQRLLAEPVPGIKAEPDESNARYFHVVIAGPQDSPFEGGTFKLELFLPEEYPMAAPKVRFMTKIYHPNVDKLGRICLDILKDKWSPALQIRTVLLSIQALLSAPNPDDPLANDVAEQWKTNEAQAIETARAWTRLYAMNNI

[5] = target: Glucose-6-phosphate 1-dehydrogenase (Homo sapiens, UniProt P11413); assay: human G6PD enzyme inhibitors, dose response, selectivity assay for P. falciparum G6PD inhibitor project, biochemical, fluorescence (AID 504792); format: functional
Sequence of Glucose-6-phosphate 1-dehydrogenase (P11413 whole entry, the tested form may be a part): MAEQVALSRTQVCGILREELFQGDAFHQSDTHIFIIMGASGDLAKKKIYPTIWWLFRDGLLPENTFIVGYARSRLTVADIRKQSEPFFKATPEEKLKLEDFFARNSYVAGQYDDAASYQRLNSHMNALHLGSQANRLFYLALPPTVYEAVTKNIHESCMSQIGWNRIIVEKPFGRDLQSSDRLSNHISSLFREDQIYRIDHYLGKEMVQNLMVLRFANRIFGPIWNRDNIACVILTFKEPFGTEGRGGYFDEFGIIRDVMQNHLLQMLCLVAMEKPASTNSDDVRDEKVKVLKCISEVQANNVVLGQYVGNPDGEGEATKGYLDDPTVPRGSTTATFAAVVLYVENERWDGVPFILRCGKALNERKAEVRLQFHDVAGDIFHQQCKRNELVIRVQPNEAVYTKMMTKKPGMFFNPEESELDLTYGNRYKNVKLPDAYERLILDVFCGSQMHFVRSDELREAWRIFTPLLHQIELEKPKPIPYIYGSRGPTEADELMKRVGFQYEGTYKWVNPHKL

[6] = off-target signal loss in HeLa-CEM21 co-culture – HeLa F-luc CTL cells, cherry-picked, counter-screen for HIV-1 Env fusion inhibitor project, dose response (AID 652040); format: functional, cell-based;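 note: potency for signal decrease marking cytotoxic or nonspecific inhibition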
[7] = inhibitors of clade B AD8 Env fusion, dose response, cell-based, cherry-pick (AID 652062); format: functional;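 note: luciferase signal from cell-cell fusion driven by HIV-1 clade B AD8 Env; potency is for inhibitors of fusion seen as a drop in luminescence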
[8] = inhibitors of HIV Env-driven cell fusion, dose response, cherry-pick (AID 652057); format: functional, cell-based
[9] = ZM109 Env clade C HIV-1 fusion inhibitors, dose response, HeLa effector, CEM target cells, luciferase, cherry-pick (AID 652058); format: functional, cell-based
[10] = target: T3, Histone-lysine N-methyltransferase NSD2 (Homo sapiens, UniProt O96028); format: biochemical
T3 sequence (O96028 whole entry): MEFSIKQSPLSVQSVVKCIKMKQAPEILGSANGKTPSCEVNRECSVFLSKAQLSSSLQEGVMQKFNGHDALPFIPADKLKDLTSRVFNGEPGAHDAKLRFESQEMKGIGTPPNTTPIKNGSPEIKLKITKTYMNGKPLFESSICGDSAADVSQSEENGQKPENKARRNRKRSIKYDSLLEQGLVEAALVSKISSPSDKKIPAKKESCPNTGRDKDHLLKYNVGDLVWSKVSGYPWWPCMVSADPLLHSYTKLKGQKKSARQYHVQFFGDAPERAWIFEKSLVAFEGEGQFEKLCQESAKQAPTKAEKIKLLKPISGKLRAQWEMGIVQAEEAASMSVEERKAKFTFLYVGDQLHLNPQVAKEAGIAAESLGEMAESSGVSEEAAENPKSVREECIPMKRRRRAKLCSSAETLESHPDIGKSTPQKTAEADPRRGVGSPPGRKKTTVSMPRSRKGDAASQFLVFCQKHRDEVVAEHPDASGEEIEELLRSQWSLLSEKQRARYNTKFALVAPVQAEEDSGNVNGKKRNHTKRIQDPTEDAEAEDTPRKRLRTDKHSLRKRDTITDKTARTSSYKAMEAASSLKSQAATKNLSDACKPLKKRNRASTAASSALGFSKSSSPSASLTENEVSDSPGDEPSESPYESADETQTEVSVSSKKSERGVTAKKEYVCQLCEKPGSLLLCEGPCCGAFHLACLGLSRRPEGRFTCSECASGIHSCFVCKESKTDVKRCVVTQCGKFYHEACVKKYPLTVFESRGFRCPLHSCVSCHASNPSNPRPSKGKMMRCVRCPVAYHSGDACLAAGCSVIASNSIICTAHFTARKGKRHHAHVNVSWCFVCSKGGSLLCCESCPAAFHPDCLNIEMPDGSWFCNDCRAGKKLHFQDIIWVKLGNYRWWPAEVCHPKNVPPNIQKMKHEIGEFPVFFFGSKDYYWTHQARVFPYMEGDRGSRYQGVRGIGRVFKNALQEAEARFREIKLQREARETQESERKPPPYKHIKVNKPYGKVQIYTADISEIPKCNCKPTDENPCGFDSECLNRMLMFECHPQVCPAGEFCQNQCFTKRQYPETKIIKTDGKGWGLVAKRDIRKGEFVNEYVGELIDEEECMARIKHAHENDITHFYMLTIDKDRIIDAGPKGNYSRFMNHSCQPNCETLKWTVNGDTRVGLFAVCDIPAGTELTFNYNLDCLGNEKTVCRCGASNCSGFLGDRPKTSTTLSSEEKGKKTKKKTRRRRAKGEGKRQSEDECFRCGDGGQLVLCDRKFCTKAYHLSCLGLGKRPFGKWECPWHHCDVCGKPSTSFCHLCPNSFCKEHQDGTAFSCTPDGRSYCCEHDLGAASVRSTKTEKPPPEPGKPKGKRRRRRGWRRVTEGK

[11] = A cytotoxicity screen of small molecule inhibitors of the PhoP region in Salmonella typhi identified in the primary screen. [Related pubchem assays: 1850, 1864, 1985 ]; format: functional
[12] = THP-1 cell cytotoxicity, dose response, cytotoxicity control for non-replicating M. tuberculosis project (AID 489025); format: functional
[13] = target: Nonstructural protein 1 (Influenza A virus, UniProt Q194T2); format: functional, Influenza A virus (A/California/07/2009(H1N1))
Sequence of Nonstructural protein 1 (Q194T2 whole entry): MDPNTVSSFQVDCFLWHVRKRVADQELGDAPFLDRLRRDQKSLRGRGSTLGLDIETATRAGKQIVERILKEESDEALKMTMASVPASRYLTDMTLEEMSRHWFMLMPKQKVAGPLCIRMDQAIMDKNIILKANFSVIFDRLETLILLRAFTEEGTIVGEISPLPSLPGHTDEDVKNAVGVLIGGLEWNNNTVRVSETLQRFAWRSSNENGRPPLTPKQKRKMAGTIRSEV

[14] = C. albicans growth with fluconazole, confirmation, fluorescence, retest (AID 2467); format: functional, cell-based
[15] = NIH-3T3 fibroblast cytotoxicity, dose response, cytotoxicity control, cell-based, fluorescence, Alamar Blue, secondary assay (AID 2327); format: functional;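 note: NIH-3T3 mouse fibroblasts cultured with fluconazole at 8 µg/mL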
[16] = target: Paired box protein Pax-8 (Homo sapiens, UniProt Q06710); assay: inhibitors of PAX8-driven TPO luciferase reporter, dose response, RMG-I cells, cherry-pick (AID 687027); format: functional, cell-based;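 note: luciferase reporter driven by Pax8 target thyroperoxidase promoter measured by SteadyGlo luminescence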
Sequence of Paired box protein Pax-8 (Q06710 whole entry): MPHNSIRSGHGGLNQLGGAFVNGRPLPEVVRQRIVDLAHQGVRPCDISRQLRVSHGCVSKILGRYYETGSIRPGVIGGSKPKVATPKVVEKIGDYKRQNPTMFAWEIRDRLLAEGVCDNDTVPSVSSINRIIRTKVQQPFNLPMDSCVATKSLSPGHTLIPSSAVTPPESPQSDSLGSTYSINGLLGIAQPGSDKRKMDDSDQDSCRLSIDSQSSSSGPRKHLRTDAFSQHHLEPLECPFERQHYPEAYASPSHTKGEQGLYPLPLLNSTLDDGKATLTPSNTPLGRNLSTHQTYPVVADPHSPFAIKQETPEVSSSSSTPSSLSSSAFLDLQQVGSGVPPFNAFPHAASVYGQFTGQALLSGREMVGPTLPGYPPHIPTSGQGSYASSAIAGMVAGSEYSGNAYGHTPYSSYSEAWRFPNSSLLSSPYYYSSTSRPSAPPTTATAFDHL

Sequence of Glyceraldehyde-3-phosphate dehydrogenase (P04406 whole entry): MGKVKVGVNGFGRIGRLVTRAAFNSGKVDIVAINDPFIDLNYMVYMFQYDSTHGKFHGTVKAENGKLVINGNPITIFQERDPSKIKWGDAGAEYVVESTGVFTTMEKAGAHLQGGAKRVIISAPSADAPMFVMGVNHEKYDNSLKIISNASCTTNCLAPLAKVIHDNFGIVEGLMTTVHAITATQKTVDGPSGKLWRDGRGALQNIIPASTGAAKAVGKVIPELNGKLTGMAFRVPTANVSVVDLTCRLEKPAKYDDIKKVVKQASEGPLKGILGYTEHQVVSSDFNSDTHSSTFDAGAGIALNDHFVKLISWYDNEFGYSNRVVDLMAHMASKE

In the case of COc1cccc(-c2nnc(SCC(=O)O)[nH]2)c1, the IC50 [1] is reported as > 100 µM (not active).
For O=C(CCCOc1ccccc1)OCn1nnc2ccccc2c1=O, the IC50 [2] was 3.55 µM (active).
In the case of O=C(OCc1nnc(-c2ccccc2)o1)c1ccc(Br)o1, the IC50 [2] is reported as 20.1 µM (active).
With CN(C)CCCN(C(=O)c1ccc(C(=O)c2ccccc2)cc1)c1nc2cc3c(cc2s1)OCO3 the AC50 [3] was 7.81 µM (active) and the IC50 [4] was > 20 µM (inactive).
With COc1cc(NCc2ccccc2)c2ncn(Cc3ccccc3)c2c1 the IC50 [5] was > 80 µM (inactive).
In the case of CCN(C[C@H]1N[C@@](CC)(C(=O)OC)[C@H]2C(=O)N(Cc3ccccc3)C(=O)[C@@H]12)S(=O)(=O)c1ccc(C(F)(F)F)cc1, the AC50 [6] is reported as 1.79 µM (active), the AC50 [7] is reported as 2.16 µM (active) and the AC50 [8] is reported as 1.3 µM (active). For the same compound, the AC50 [9] was 1.3 µM (active).
With C/C(Cn1nnc([N+](=O)[O-])n1)=N\NC(=O)c1ccc(O)cc1 the IC50 [5] was > 80 µM (inactive).
With CNCCCc1ccccc1 the AC50 [10] was > 20 µM (inactive).
In the case of CCOC(=O)COn1c(=O)c(-c2cccs2)[n+]([O-])c2ccccc21, the EC50 [11] is reported as > 50 µM (active).
With COc1ccc2c(c1)CC1c3c(cc4c(c3-2)OCO4)CC[N+]1(C)[O-] (centres undefined) the AC50 [3] was 3.38 µM (active).
With CCCN(CCC)CCNC(=O)c1cc2c(-c3ccccc3F)nn(C)c2s1 the AC50 [10] was > 20 µM (inactive).
For CC(=O)O[C@H]1C[C@@H]2CC[C@@H]3[C@H](CC[C@@]4(C)[C@H]3C[C@H]([N+]3(C)CCCCC3)[C@@H]4OC(C)=O)[C@@]2(C)C[C@@H]1[N+]1(C)CCCCC1 [PANCURONIUM BROMIDE], the AC50 [3] was 8.3 µM (active).
For CCC(C)(C)NC(=O)C(c1ccc(C)cc1)N(CC1CCCO1)C(=O)c1csnn1 (centres undefined), the AC50 [6] was 6.84 µM (active), the AC50 [7] was 7.81 µM (active) and the AC50 [8] was 4.81 µM (active). The AC50 [9] was 2.82 µM (active).
For CCc1ccc(Cc2cnc(NC(=O)C3=NCCN3)s2)cc1, the CC50 [12] was > 40 µM (active) and the IC50 [2] was 9.25 µM (active).
With COc1ccccc1NC(=O)Cn1nc(-c2ccncc2)nc1SCC(=O)NC1CCCC1 the EC50 [11] was > 50 µM (active).
For COc1cccc(NC(=O)CSc2nn3c(=O)c(C)nnc3s2)c1, the IC50 [13] was 11.3 µM (active).
With O=C(CN(c1cc(C(F)(F)F)ccc1Cl)S(=O)(=O)c1ccccc1)NCc1cccnc1 the AC50 [6] was 3.81 µM (active), the AC50 [7] was 5.21 µM (active) and the AC50 [8] was 1.98 µM (active). For the same compound, the AC50 [9] was 3.01 µM (active).
With O=C1C(Cl)=C(N2CCN(Cc3ccc4c(c3)OCO4)CC2)C(=O)N1c1cccc(C(F)(F)F)c1 the IC50 [1] was > 50 µM (inconclusive).
With COc1ccc([C@@H]2[C@@H]3C(=O)N(C(C)(C)C)C(=O)[C@@H]3[C@]3(CC(C)C)C(=O)N(c4cccc(F)c4)C(=O)N23)cc1 the AC50 [6] was < 0.26 µM (active), the AC50 [7] was < 0.26 µM (active) and the AC50 [8] was < 0.26 µM (active). For the same compound, the AC50 [9] was < 0.26 µM (active).
With O=C(CN1CCN(S(=O)(=O)c2ccc(Cl)cc2)CC1)c1ccc(O)c(O)c1 the AC50 [10] was 4.91 µM (active).
For N#CC1C(=O)Nc2cccnc21 (centres undefined), the AC50 [10] was > 20 µM (inactive).
With CCc1ccc(NC(=O)Nc2ccncc2)cc1 the EC50 [11] was > 50 µM (active).
In the case of C#CCOCCOCCOCCNc1nc(N2CCN(C(=O)Cn3cc(CCCN=C(N)N)nn3)CC2)nc(N2CCN(C(=O)[C@H](CCCCN)n3cc(CCCC)nn3)CC2)n1, the AC50 [3] is reported as 34 µM (active).
In the case of CC1CCCCN1S(=O)(=O)c1ccc(S(=O)(=O)NCCc2ccncc2)cc1 (centres undefined), the EC50 [11] is reported as > 50 µM (active).
With CCN1CCCC1CNC(=O)c1ccc2c(c1)NC(=O)/C(=C\c1ccccc1F)S2 (centres undefined) the IC50 [5] was > 80 µM (inactive) and the AC50 [3] was 6.33 µM (active).
In the case of Cc1cccc(C(=O)Nc2nnc(S(=O)(=O)N3CCOCC3)s2)c1, the IC50 [5] is reported as 54.4 µM (inactive).
For COC(=O)[C@@]1(Cc2ccccc2)[C@H]2C(=O)N(Cc3ccccc3)C(=O)[C@H]2[C@H]2CN=C(SCc3ccc(C#N)cc3)N21, the AC50 [6] was 4.57 µM (active), the AC50 [7] was 4.69 µM (active) and the AC50 [8] was 2.07 µM (active). For the same compound, the AC50 [9] was 3.83 µM (active).
With COCc1cc(CN2CCN(C)CC2)c(O)c2ncccc12 the EC50 [14] was > 38 µM (not active), the IC50 [13] was 4.15 µM (active) and the EC50 [15] was > 160 µM (inactive).
For COc1ccccc1NC(=O)CSc1ccc(-c2ccccn2)nn1, the IC50 [13] was 7.99 µM (active).
For CC(C)Cc1nc(N2CCOCC2)c(C#N)c2c1COC(C)(C)C2, the EC50 [11] was > 50 µM (active).
With O=C(C[C@H]1CC[C@H]2[C@@H](COC[C@@H](O)CN2Cc2ccc(F)cc2)O1)NCc1ccccc1Cl the AC50 [16] was 23.7 µM (active).
With COc1ccc(OC)c(CCNC(=O)CS(=O)(=O)Cc2nc(-c3ccccc3C)oc2C)c1 the EC50 [11] was > 50 µM (active).
In the case of CCOc1ccc2[nH]c3c(c2c1)CNCC3, the AC50 [3] is reported as 26.8 µM (active).
In the case of CC1(C)Cc2c(sc3nc4n(-c5ccccc5)c(=O)c(CCC(=O)O)nn4c(=O)c23)CO1, the IC50 [5] is reported as 34.1 µM (inactive).
